Measurements from patent US5538882A, “Variant-type carbohydrate hydrolase, variant gene of the enzyme and method for producing oligosaccharide using the enzyme” (priority 1993, dated 1996).

Assays:
Settings in all cases: substrate 3KB-G5-CNP, hydrolysis
[1] = molecular target: Saccharomycopsis fibuligera α-amylase (Sfamy) variant SfamyY83L, Y83L, SEQ ID NO: 6 (Saccharomycopsis fibuligera, UniProt P21567, Y109L)
Protocol: (§1) Furthermore, using a substrate with both its non-reducing end terminus and its reducing end terminus modified, i.e. 3KB-G5 -CNP (chloronitrophenyl maltopentaose wherein the hydroxyl group at position 3 of the glucose residue at the non-reducing end terminus is ketobutylated; manufactured by Ono Pharmaceutical Company), the hydrolysis activities of the wild-type enzyme and the variant-type enzymes were determined. 3KB-G5 -CNP cannot function as a substrate for transglycosylation reaction because of the modification of both of the termini, and therefore, only the hydrolysis activity can be assayed.

[2] = molecular target: Saccharomycopsis fibuligera α-amylase (Sfamy) variant SfamyY83F, Y83F, SEQ ID NO: 2 (Saccharomycopsis fibuligera, UniProt P21567, A249P/Y109F)
Protocol: as §1

[3] = molecular target: Saccharomycopsis fibuligera α-amylase (Sfamy) variant SfamyY83W, Y83W, SEQ ID NO: 4 (Saccharomycopsis fibuligera, UniProt P21567, Y109W)
Protocol: as §1

[4] = molecular target: T1, Saccharomycopsis fibuligera α-amylase (Sfamy), wild type (Saccharomycopsis fibuligera, UniProt P21567)
T1 sequence (P21567 27-494): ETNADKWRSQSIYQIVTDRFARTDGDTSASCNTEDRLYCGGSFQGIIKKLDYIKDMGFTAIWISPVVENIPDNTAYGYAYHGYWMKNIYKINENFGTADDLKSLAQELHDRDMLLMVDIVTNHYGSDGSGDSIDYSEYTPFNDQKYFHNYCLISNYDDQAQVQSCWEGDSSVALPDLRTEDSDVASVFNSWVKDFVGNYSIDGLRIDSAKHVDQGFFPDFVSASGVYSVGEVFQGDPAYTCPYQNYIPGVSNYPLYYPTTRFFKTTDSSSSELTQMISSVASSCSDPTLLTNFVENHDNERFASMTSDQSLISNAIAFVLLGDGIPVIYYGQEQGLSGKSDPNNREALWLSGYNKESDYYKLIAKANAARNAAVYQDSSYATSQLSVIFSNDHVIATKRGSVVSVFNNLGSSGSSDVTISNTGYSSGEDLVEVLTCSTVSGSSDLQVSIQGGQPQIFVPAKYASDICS
Protocol: as §1

[5] = molecular target: Saccharomycopsis fibuligera α-amylase (Sfamy) variant SfamyY83N, Y83N, SEQ ID NO: 8 (Saccharomycopsis fibuligera, UniProt P21567, Y109N)
Sequence of Saccharomycopsis fibuligera α-amylase (Sfamy) variant SfamyY83N, Y83N, SEQ ID NO: 8 (P21567 27-494 Y109N): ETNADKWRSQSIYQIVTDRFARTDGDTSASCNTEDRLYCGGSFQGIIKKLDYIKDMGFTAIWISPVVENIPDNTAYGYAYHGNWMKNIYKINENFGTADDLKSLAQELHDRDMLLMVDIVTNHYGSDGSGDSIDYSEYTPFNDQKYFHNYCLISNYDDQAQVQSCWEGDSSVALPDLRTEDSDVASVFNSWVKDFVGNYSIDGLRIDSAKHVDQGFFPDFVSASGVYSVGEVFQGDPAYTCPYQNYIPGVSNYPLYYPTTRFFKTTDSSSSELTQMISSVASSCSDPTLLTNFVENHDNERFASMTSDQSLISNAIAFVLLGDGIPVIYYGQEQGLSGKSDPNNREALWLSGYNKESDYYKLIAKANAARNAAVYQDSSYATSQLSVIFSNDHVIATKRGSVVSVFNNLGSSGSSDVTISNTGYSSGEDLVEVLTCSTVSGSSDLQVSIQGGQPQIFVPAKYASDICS
Protocol: as §1

Sequence of Saccharomycopsis fibuligera α-amylase (Sfamy) variant SfamyY83L, Y83L, SEQ ID NO: 6 (P21567 27-494 Y109L): as the sequence (P21567 27-494 Y109N) above, with N83L counted along it
Sequence of Saccharomycopsis fibuligera α-amylase (Sfamy) variant SfamyY83F, Y83F, SEQ ID NO: 2 (P21567 27-494 Y109F/A249P): as the sequence (P21567 27-494 Y109N) above, with N83F, A223P counted along it
Sequence of Saccharomycopsis fibuligera α-amylase (Sfamy) variant SfamyY83W, Y83W, SEQ ID NO: 4 (P21567 27-494 Y109W): as the sequence (P21567 27-494 Y109N) above, with N83W counted along it

CC(=O)CC1OC[C@H]2O[C@H](O[C@H]3[C@H](O)[C@@H](O)[C@@H](O[C@H]4[C@H](O)[C@@H](O)[C@@H](O[C@H]5[C@H](O)[C@@H](O)[C@@H](O[C@H]6[C@H](O)[C@@H](O)[C@H](Oc7ccc([N+](=O)[O-])cc7Cl)O[C@@H]6CO)O[C@@H]5CO)O[C@@H]4CO)O[C@@H]3CO)[C@H](O)[C@@H](O)[C@@H]2O1 (stereo partly drawn) [3KB-G5 -CNP]
Km [1]: 120 µM | kcat [1]: 0.183 s⁻¹ | kcat/Km [1]: 1550 M⁻¹ s⁻¹ | Km [2]: 130 µM | kcat [2]: 2.5 s⁻¹ | kcat/Km [2]: 20000 M⁻¹ s⁻¹ | Km [3]: 150 µM | kcat [3]: 2.17 s⁻¹ | kcat/Km [3]: 14500 M⁻¹ s⁻¹ | Km [4]: 60 µM | kcat [4]: 15.3 s⁻¹ | kcat/Km [4]: 250000 M⁻¹ s⁻¹ | Km [5]: 190 µM | kcat [5]: 0.267 s⁻¹ | kcat/Km [5]: 1430 M⁻¹ s⁻¹
